Test results: patent publication EP1986011A2, “Peptide epitopes recognized by disease promoting CD4+ T lymphocytes” (MGI PHARMA Biologics, Inc., priority 1999, dated 2008)

Tests used:
[1] = system: isolated HLA-DR4 molecules; assay: Binding inhibition assay: inhibition of binding of biotinylated invariant chain indicator peptide; parameters: species or system human; conditions: HLA-DR4 10 µg/ml, indicator peptide 1 µM, varying concentrations of test peptide, overnight at room temperature (Fig. 3)
Description: Synthetic peptides with amino acid sequences based on the 6 core regions identified by the IMF were tested for their ability to bind to isolated HLA-DR4 molecules in a binding inhibition assay performed essentially as previously described [Chicz et al. (1997), J. Immunol. 159: 4935-4942]. In brief, aliquots of immunopurified preparation of HLA-DR4 (final concentration of 10 µg/ml) were incubated with a biotinylated HLA-DR4 binding peptide (consisting of residues 98-117 of class II MHC invariant chain) ("the indicator peptide") (1 µM) and varying concentrations of the test peptides in 0.2 ml tubes. After an overnight incubation at room temperature, the contents of each tube were transferred to a well of a 96-well plastic microtiter plate precoated with anti-HLA-DR4 antibody. The microtiter plates were rocked for 60 min at room temperature and unbound material was removed by rigorous washing. The relative amount of bound standard peptide in each well was determined by measuring color development after addition of streptavidin-conjugated alkaline phosphatase, washing, and adding a chromogenic alkaline phosphatase substrate.
In order to test for the ability of the 6 consensus peptides representing the 6 core regions defined by the IMF described in Example 1, a binding inhibition assay was performed (Fig. 3). […]

peripheral blood T cells = assay: T cell proliferation assay (Epitope Verification) with synthetic IA-2 peptides; type: cell-based, human; parameters: key: significant ("POS" in Table 2) proliferative responses; conditions: HLA-DR4 IDDM patient DC (I), DRB1 genotype 0403.0405; peptide 10 µg/ml, 5 days; significant = SI >2.0 and >40% wells positive
Description: To establish that peptide epitopes identified are relevant to IDDM (i.e., that they are recognized by CD4+ T cells of patients with IDDM or pre-IDDM expressing the DR4 molecule but not by non-diabetic controls also expressing the DR4 molecule), T cell proliferation assays were carried out using synthetic peptides having amino acid sequences based upon the peptides identified by mass spectrometry to be derived from IA-2ic. Peptides were synthesized using Fmoc chemistry with an Applied Biosystems SYNERGY peptide synthesizer and purified by preparative RP-HPLC on a Waters 2690 Alliance system equipped with a Radial Compression Module. […] Peripheral blood mononuclear cells from recent onset IDDM patients (<6 months from diagnosis) and healthy controls expressing the appropriate HLA DR4 molecules were separated by density gradient centrifugation and co-cultured in wells of 96-well U-bottom plates with peptides at a concentration of 10 µg/ml for 5 days in 150 µl RPMI 1640/10% pooled normal AB serum, followed by pulsing with 0.5 µCi [^3H]-thymidine/well and harvesting onto filters for radioactivity counting measured in counts per minute (cpm). […] Results were expressed as a stimulation index (SI) which is the ratio of the cpm obtained from cultures containing peptide to the cpm obtained from cultures without peptide (mean cpm of 12 wells in each case). […]

| Substance | binding to HLA-DR4 molecules [1] | T cell response to IA-2 peptide (peripheral blood T cells) |
| --- | --- | --- |
| Ii-c: a peptide consisting of residues 98-117 of class II MHC invariant chain (PKPPKPVSKMRMATPLLMQA) [reference compound] | bind with intermediate avidity | – |
| LAKEWQALCAYQAEPNTCATAQGE [709-732, peptide consisting of residues 709-732 of IA-2] | bind strongly | POS |
